Data taken from patent US12692262B2, “Substituted ureas as orexin receptor agonists” (Merck Sharp & Dohme LLC, priority 2020, dated 2026).

Molecular target: T1, human OX2R (Homo sapiens, UniProt O43614)
T1 construct: expressed in transfected cells; host or cells: CHO (Chinese hamster ovary) cells grown under G418 selection
T1 sequence (O43614 1-444): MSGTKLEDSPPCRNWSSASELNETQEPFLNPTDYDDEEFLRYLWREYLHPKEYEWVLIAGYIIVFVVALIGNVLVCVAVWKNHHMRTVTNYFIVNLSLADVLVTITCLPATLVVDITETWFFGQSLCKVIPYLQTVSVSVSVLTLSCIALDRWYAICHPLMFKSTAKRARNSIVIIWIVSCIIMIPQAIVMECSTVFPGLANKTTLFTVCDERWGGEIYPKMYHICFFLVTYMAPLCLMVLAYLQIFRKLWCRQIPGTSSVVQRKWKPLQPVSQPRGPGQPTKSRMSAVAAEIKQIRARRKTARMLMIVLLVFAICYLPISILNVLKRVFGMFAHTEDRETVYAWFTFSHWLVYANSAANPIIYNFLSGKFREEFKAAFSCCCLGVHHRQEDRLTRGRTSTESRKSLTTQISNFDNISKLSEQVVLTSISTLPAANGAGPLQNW
Experiment: IPOne (IP-1 accumulation) assay in CHO cells expressing human OX2R
Assay type: cell-based
Details: for EC50: CHO cells expressing human OX2R, IP-One assay, 2 h incubation, four parameter logistic fit, read-out: OX2R Potency, EC50; for % of maximum agonist effect (relative to Orexin A): percent effect vs mean max effect of a reference compound at 1 uM (100% activity vs Orexin A), human OX2R
How it was run: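 Agonist EC50 values come from the inflection point of four-parameter logistic curves. Read-out is IP-1 accumulation detected with lysis buffer plus D2 and AB-cryptate reagents (HTRF), in CHO cells engineered to express human OX2R.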

SMILES | EC50 | % of maximum agonist effect (relative to Orexin A)
CCN(C(=O)NC(C)C(C)(F)F)[C@@H](c1cc(-c2cn3ccnc3c(OC)n2)c(OC)cn1)C(F)(F)F (stereo partly drawn) [Example 2-40, 3-(3,3-difluorobutan-2-yl)-1-ethyl-1-((S)-2,2,2-trifluoro-1-(5-methoxy-4-(8-methoxyimidazo[1,2-a]pyrazin-6-yl)pyridin-2-yl)ethyl)urea] | 15.8 nM | 99.3%
CCN(C(=O)NC(C)C(F)F)[C@@H](c1cc(-c2cn3ccnc3c(OC)n2)c(OC)cn1)C(F)(F)F (stereo partly drawn) [Example 2-41, 3-(1,1-difluoropropan-2-yl)-1-ethyl-1-((S)-2,2,2-trifluoro-1-(5-methoxy-4-(8-methoxyimidazo[1,2-a]pyrazin-6-yl)pyridin-2-yl)ethyl)urea] | 16.3 nM | 101.2%
CCN(C(=O)NC1CC1(F)F)[C@@H](c1cc(-c2cn3ccnc3c(OC)n2)c(OC)cn1)C(F)(F)F (stereo partly drawn) [Example 2-42, 3-(2,2-difluorocyclopropyl)-1-ethyl-1-((S)-2,2,2-trifluoro-1-(5-methoxy-4-(8-methoxyimidazo[1,2-a]pyrazin-6-yl)pyridin-2-yl)ethyl)urea] | 27.8 nM | 101.7%
CCN(C(=O)NC(CN1CCOC1=O)C(F)(F)F)[C@@H](c1cc(-c2cn3ccnc3c(OC)n2)c(OC)cn1)C(F)(F)F (stereo partly drawn) [Example 2-43, 1-ethyl-1-((S)-2,2,2-trifluoro-1-(5-methoxy-4-(8-methoxyimidazo[1,2-a]pyrazin-6-yl)pyridin-2-yl)ethyl)-3-(1,1,1-trifluoro-3-(2-oxooxazolidin-3-yl)propan-2-yl)urea] | 1.1 nM | 99.8%
CCN(C(=O)N[C@@H](CC(OC)C(F)(F)F)C(F)(F)F)[C@@H](c1cc(-c2cn3cc(C)nc3c(OC)n2)c(OC)cn1)C(F)(F)F (stereo partly drawn) [Example 2-44, 1-ethyl-3-((2S)-1,1,1,5,5,5-hexafluoro-4-methoxypentan-2-yl)-1-((S)-2,2,2-trifluoro-1-(5-methoxy-4-(8-methoxy-2-methylimidazo[1,2-a]pyrazin-6-yl)pyridin-2-yl)ethyl)urea] | 4.8 nM | 100.6%
CCN(C(=O)NC(CCC(F)(F)F)C1CCO1)[C@@H](c1cc(-c2cn3ccnc3c(OC)n2)c(OC)cn1)C(F)(F)F (stereo partly drawn) [Example 2-45, 1-ethyl-1-((S)-2,2,2-trifluoro-1-(5-methoxy-4-(8-methoxyimidazo[1,2-a]pyrazin-6-yl)pyridin-2-yl)ethyl)-3-(4,4,4-trifluoro-1-(oxetan-2-yl)butyl)urea] | 1.9 nM | 99.8%
CCN(C(=O)NC(CC1CCCO1)C(F)(F)F)[C@@H](c1cc(-c2cn3cc(C)nc3c(OC)n2)c(OC)cn1)C(F)(F)F (stereo partly drawn) [Example 2-46, 1-ethyl-1-((S)-2,2,2-trifluoro-1-(5-methoxy-4-(8-methoxy-2-methylimidazo[1,2-a]pyrazin-6-yl)pyridin-2-yl)ethyl)-3-(1,1,1-trifluoro-3-(tetrahydrofuran-2-yl)propan-2-yl)urea] | 11.7 nM | 100.9%
CCN(C(=O)NC(C1CCCOC1)C(F)(F)F)[C@@H](c1cc(-c2cn3cc(C)nc3c(OC)n2)c(OC)cn1)C(F)(F)F (stereo partly drawn) [Example 2-47, 1-ethyl-1-((S)-2,2,2-trifluoro-1-(5-methoxy-4-(8-methoxy-2-methylimidazo[1,2-a]pyrazin-6-yl)pyridin-2-yl)ethyl)-3-(2,2,2-trifluoro-1-(tetrahydro-2H-pyran-3-yl)ethyl)urea] | 16.7 nM | 100.7%
CCN(C(=O)NC(C1CCOCC1)C(F)(F)F)[C@@H](c1cc(-c2cn3cc(C)nc3c(OC)n2)c(OC)cn1)C(F)(F)F (stereo partly drawn) [Example 2-48, 1-ethyl-1-((S)-2,2,2-trifluoro-1-(5-methoxy-4-(8-methoxy-2-methylimidazo[1,2-a]pyrazin-6-yl)pyridin-2-yl)ethyl)-3-(2,2,2-trifluoro-1-(tetrahydro-2H-pyran-4-yl)ethyl)urea] | 17.6 nM | 101.0%
CCN(C(=O)NC(CCC(F)(F)F)COC)[C@@H](c1cc(-c2cn3cc(C)nc3c(OC)n2)c(OC)cn1)C(F)(F)F (stereo partly drawn) [Example 2-49, 1-ethyl-1-((S)-2,2,2-trifluoro-1-(5-methoxy-4-(8-methoxy-2-methylimidazo[1,2-a]pyrazin-6-yl)pyridin-2-yl)ethyl)-3-(5,5,5-trifluoro-1-methoxypentan-2-yl)urea] | 99.4 nM | 100.1%
CCN(C(=O)N[C@@H](CCC(F)(F)F)C(F)(F)F)C(c1cnc(OC)c(-c2cn3ccnc3c(OC)n2)c1)C(F)(F)F (stereo partly drawn) [Example 2-50, 1-ethyl-3-((S)-1,1,1,5,5,5-hexafluoropentan-2-yl)-1-(2,2,2-trifluoro-1-(6-methoxy-5-(8-methoxyimidazo[1,2-a]pyrazin-6-yl)pyridin-3-yl)ethyl)urea] | 1.4 nM | 100.5%
CCN(C(=O)N[C@@H](CCC(F)(F)F)C(F)(F)F)[C@H](C)c1cc(-c2cc3ccnn3c(OC)n2)c(OC)cn1 [Example 2-51, 1-ethyl-3-((S)-1,1,1,5,5,5-hexafluoropentan-2-yl)-1-((R)-1-(5-methoxy-4-(7-methoxypyrazolo[1,5-c]pyrimidin-5-yl)pyridin-2-yl)ethyl)urea] | 1 nM | 98.7%
CCN(C(=O)NC(CC(F)F)C(F)(F)F)[C@H](C)c1cccc(-c2cn3ccnc3c(OC)n2)c1 (stereo partly drawn) [Example 2-52, 1-ethyl-1-((R)-1-(3-(8-methoxyimidazo[1,2-a]pyrazin-6-yl)phenyl)ethyl)-3-(1,1,1,4,4-pentafluorobutan-2-yl)urea] | 35.8 nM | 100.6%

More lines, now with the values ahead:

EC50 | % of maximum agonist effect (relative to Orexin A) | SMILES
1.5 nM | 101.6% | CCN(C(=O)NC(C1CC(F)(F)CCN1C)C(F)(F)F)[C@H](C)c1cccc(-c2cc(OC)n3nccc3c2)c1 (stereo partly drawn) [Example 2-53, 3-(1-(4,4-difluoro-1-methylpiperidin-2-yl)-2,2,2-trifluoroethyl)-1-ethyl-1-((R)-1-(3-(7-methoxypyrazolo[1,5-a]pyridin-5-yl)phenyl)ethyl)urea]
1.6 nM | 99.4% | CCN(C(=O)NC(CCC(C)=O)C(F)(F)F)[C@H](C)c1cccc(-c2cn3ccnc3c(OC)n2)c1 (stereo partly drawn) [Example 2-54, 1-ethyl-1-((R)-1-(3-(8-methoxyimidazo[1,2-a]pyrazin-6-yl)phenyl)ethyl)-3-(1,1,1-trifluoro-5-oxohexan-2-yl)urea]
129 nM | 99.4% | CCN(C(=O)NC(CCC(F)(F)F)C(C)(F)F)[C@H](C)c1cccc(-c2cn3ccnc3c(OC)n2)c1 (stereo partly drawn) [Example 2-55, 1-ethyl-1-((R)-1-(3-(8-methoxyimidazo[1,2-a]pyrazin-6-yl)phenyl)ethyl)-3-(2,2,6,6,6-pentafluorohexan-3-yl)urea]
15.3 nM | 96.2% | CCOC1(CC(NC(=O)N(CC)[C@H](C)c2cccc(-c3cn4ccnc4c(OC)n3)c2)C(F)(F)F)CC1 (stereo partly drawn) [Example 2-57, 3-(3-(1-ethoxycyclopropyl)-1,1,1-trifluoropropan-2-yl)-1-ethyl-1-((R)-1-(3-(8-methoxyimidazo[1,2-a]pyrazin-6-yl)phenyl)ethyl)urea]
17.8 nM | 100.0% | CC[C@H](CCC(F)(F)F)NC(=O)N(C)[C@H](C)c1cccc(-c2cn3ccnc3c(OC)n2)c1 [Example 2-58, 1-((R)-1-(3-(8-methoxyimidazo[1,2-a]pyrazin-6-yl)phenyl)ethyl)-1-methyl-3-((R)-6,6,6-trifluorohexan-3-yl)urea]
20.9 nM | 100.2% | CCCN(C(=O)N[C@H](CC)CCC(F)(F)F)[C@H](C)c1cccc(-c2cn3ccnc3c(OC)n2)c1 [Example 2-59, 1-((R)-1-(3-(8-methoxyimidazo[1,2-a]pyrazin-6-yl)phenyl)ethyl)-1-propyl-3-((R)-6,6,6-trifluorohexan-3-yl)urea]
64.4 nM | 97.4% | CC[C@H](CCC(F)(F)F)NC(=O)N(C(C)C)[C@H](C)c1cccc(-c2cn3ccnc3c(OC)n2)c1 [Example 2-60, 1-isopropyl-1-((R)-1-(3-(8-methoxyimidazo[1,2-a]pyrazin-6-yl)phenyl)ethyl)-3-((R)-6,6,6-trifluorohexan-3-yl)urea]
5.8 nM | 99.5% | COc1nc(-c2cccc(C(C)N(CC(F)F)C(=O)N[C@@H](CCC(F)(F)F)C(F)(F)F)c2)cn2ccnc12 (stereo partly drawn) [Example 2-61, 1-(2,2-difluoroethyl)-3-((S)-1,1,1,5,5,5-hexafluoropentan-2-yl)-1-(1-(3-(8-methoxyimidazo[1,2-a]pyrazin-6-yl)phenyl)ethyl)urea]
13.1 nM | 95.6% | CCN(C(=O)N[C@@H](C)C(F)(F)F)C(c1cnc(OC)c(-c2cn3ccnc3c(OC)n2)c1)C(F)(F)F (stereo partly drawn) [Example 2-62, 1-ethyl-1-(2,2,2-trifluoro-1-(6-methoxy-5-(8-methoxyimidazo[1,2-a]pyrazin-6-yl)pyridin-3-yl)ethyl)-3-((S)-1,1,1-trifluoropropan-2-yl)urea]
